Source: patent US20160166487A1, “TOPICAL COMPOSITIONS FOR TREATMENT OF EXCESSIVE SWEATING AND METHODS OF USE THEREOF” (GLAXOSMITHKLINE INTELLECTUAL PROPERTY DEVELOPMENT LIMITED, priority 2013, published 2016)

Assays:
[1] = Irritation potential of topical solution; conditions: solution comprising 2.2% w/w umeclidinium bromide
[2] = Population pharmacokinetic model of IV and occluded axilla plasma data; assay type: in vivo, human
Description: Of the drug that was available systemically, 9.70% (66.7%) was absorbed through a zero order process.

[3] = Clinical study, single topical [14C] umeclidinium dose to axilla or palm of healthy male subjects; assay type: in vivo, human
Method: Up to four cohorts were to be enrolled (Cohort A: unoccluded axilla; Cohort B: occluded axilla; Cohort C: unoccluded palm; Cohort D: occluded palm). Six subjects were to be dosed in each cohort and complete the study procedures.
On the day of dosing, subjects will receive the study drug applied to the axilla or palm. Each subject will only receive a single dose of study drug which will be applied to the test site and remain on the application site for 8 hours. Serial blood samples will be collected throughout treatment. An interim analysis using simulations will be conducted after each cohort to determine the likelihood of exceeding the safety cover for Cmax or AUC and the likelihood of obtaining quantifiable concentrations sufficient to determine the half-life in the subsequent cohorts.

[4] = MALDI imaging of distribution in skin layers; assay type: in vitro ADME, human; conditions: twenty-four hours after single finite topical dose
Description: Matrix-assisted laser desorption/ionization (MALDI) has emerged as a powerful and diverse technology for analyzing the spatial distribution of endogenous and exogenous compounds directly from a tissue section. [See Seeley E H, Caprioli R M. MALDI imaging mass spectrometry of human tissue: method challenges and clinical perspectives. Trends Biotechnol. 29(3), 136-143 (2011); and Svatos A. Mass spectrometric imaging of small molecules. Trends Biotechnol. 28(8), 425-434 (2010)]. […] Anal Bioanal Chem. (2013); 405(4):1159-70]. MALDI imaging in human skin tissue sections: focus on various matrices and enzymes.

[5] = 0.5 mg (500 mcg) inhaled once daily for 10 days, thorough QT study; cited from earlier work

OC(c1ccccc1)(c1ccccc1)C12CC[N+](CCOCc3ccccc3)(CC1)CC2 [umeclidinium, 4-[hydroxy(diphenyl)methyl]-1-{2-[(phenylmethyl)oxy]ethyl}-1-azoniabicyclo[2.2.2]octane]
irritation potential [1]: low irritation potential | estimated absolute plasma bioavailability, mean (RSE %) ([2]; administration to occluded axilla, RSE 55.3%): 0.19% | share of systemically available drug absorbed through a zero order process, mean (RSE %) ([2]; occluded axilla, RSE 66.7%): 9.70% | percent dose recovered from the skin surface, mean ([3]; Cohort A, unoccluded axilla, end of 8 hour application, range 77.7-84.1%): 80.6% | median time to maximum plasma concentration ([3]; Cohort A, unoccluded axilla, range: 12 h-30 h): 13 h | percent dose recovered from the skin surface, mean ([3]; Cohort B, occluded axilla, range 69.2%-81.7%): 75.4% | median time to maximum concentration ([3]; Cohort B, occluded axilla, range: 2 h-24 h): 13 h | plasma concentrations ([3]; Cohort D, occluded palm): no quantifiable plasma concentrations | percent dose recovered from the skin surface, mean ([3]; Cohort D, occluded palm, range 45.6%-59.9%): 52.5% | qualitative distribution in the skin layers [4]: penetrated to the deeper sections of the dermis and accumulated in the area where the sweat glands are present | tolerability [5]: well tolerated
